In PubChem BioAssay AID1249 (Columbia University Molecular Screening Center, 2008):
The source made the active and inactive calls. No rule for the calls is given here.

Experiment: cellular cytoskeleton assembly phenotype modulators – imaging, high-content imaging, retest and dose response, confirmation (AID 1249);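 also: compound exposure lasted 24 h before fixation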;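 as to inhibition: plate controls were untreated cells for no effect and reference compound treated cells for full effect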
Conditions: cell-based imaging, cytoskeleton assembly phenotype, high content; at 2 µM; stronger effect = higher value
In the case of `O=c1c(-c2ccc(Br)cc2)coc2c(CN3CCOCC3)c(O)ccc12`, the inhibition is reported as 3.1% (inactive).
In the case of `CCc1ccc(-c2nc(CN3CCC(C(=O)NCc4ccco4)CC3)c(C)o2)cc1`, the inhibition is reported as 9.2% (inactive).
With `O=C(OCn1ncc(Br)c(Br)c1=O)c1ccc(F)cc1` the inhibition was 10.9% (inactive).
In the case of `CC(=O)c1ccc(Oc2cc(C)nc(-n3nc(C)cc3C)n2)cc1`, the inhibition is reported as 11% (inactive).
For `CCOc1cc(/C=N\NC(=O)Cc2ccccc2)ccc1OCC(=O)Nc1ccc(C)c(C)c1`, the inhibition was -0.8% (inactive).
For `COC(=O)c1ccc(CSc2nnc(-c3ccncc3)n2Cc2ccccc2)o1`, the inhibition was 1.6% (inactive).
For `CCCOC(=O)NC(CC)COC(=O)Nc1cccc(C)c1C` (stereo not given), the inhibition was -5% (inactive).
For `O=S(=O)(Nc1ccc(-n2cccc2)cc1)c1ccccc1`, the inhibition was 0.5% (inactive).
For `CC(=O)c1cccc(Nc2nc(-c3cccc([N+](=O)[O-])c3)cs2)c1`, the inhibition was -7.7% (inactive).
With `CCOC(=O)Cc1csc(NC(=O)COc2ccc(N(C)S(=O)(=O)c3ccc(C)cc3)cc2)n1` the inhibition was 0% (inactive).
In the case of `O=C1N2CCSC2=NC1(Nc1ccccn1)C(F)(F)F` (stereo not given), the inhibition is reported as -0.2% (inactive).
With `O=C(NCc1cccs1)c1nc2c(nnn2Cc2ccccc2Cl)c(=O)[nH]1` the inhibition was -3.6% (inactive).
For `C=CCn1c(COc2ccc(Cl)cc2)nnc1SCC(=O)N/N=C/c1cccc(O)c1`, the inhibition was -5.9% (inactive).
In the case of `O=C(NC(Nc1nc2ccc([N+](=O)[O-])cc2s1)(C(F)(F)F)C(F)(F)F)c1ccccc1`, the inhibition is reported as -15.3% (inactive).
In the case of `CCCCC(=O)NC(=S)Nc1ccccc1C(=O)Nc1ccccc1`, the inhibition is reported as 3.2% (inactive).
For `CC(C)(C)c1ccc(C(=O)N/N=C/c2cccc(Cl)c2)cc1`, the inhibition was 7.3% (inactive).
With `CCOC(=O)C1=C(c2ccccc2)O/C(=C(/C#N)C(F)(F)F)S1` the inhibition was 2.3% (inactive).
For `CCOC(=O)Cn1c(SC)nc2sc3c(c2c1=O)CC(C)(C)OC3`, the inhibition was -24.8% (inactive).
In the case of `N#CCc1nc2c3c4c(sc3ncn2n1)CCCC4`, the inhibition is reported as -15.1% (inactive).
In the case of `CC(=O)Nc1ccc(S(=O)(=O)n2cnc(C)c2)cc1`, the inhibition is reported as 6.7% (inactive).
In the case of `O=S(=O)(Cc1ccccc1Cl)N1CCN(Cc2ccc3c(c2)OCO3)CC1`, the inhibition is reported as 41.5% (inactive).
With `COc1ccc2[nH]c(=O)c(CN(C(=O)c3ccncc3)C(C)C)cc2c1` the inhibition was -5.6% (inactive).
For `Cc1ccc(O)c(NC(=O)CCC2CCCCC2)c1`, the inhibition was -15.6% (inactive).
With `CC(=NCCCO)c1c(O)n(Cc2ccccc2)c(=O)[nH]c1=O` the inhibition was 3.6% (inactive).
For `CC1(C)CC(=O)c2cc(OCC(=O)NCCCN3CCN(c4ccc(F)cc4)CC3)ccc2O1`, the inhibition was 8.9% (inactive).
With `Cc1ccc(C(=O)CSc2nsc(C)c2C#N)cc1` the inhibition was -11.1% (inactive).
With `Cc1ccc2nc(SCC(=O)Nc3cc(C(F)(F)F)ccc3N3CCOCC3)[nH]c2c1` the inhibition was -6.4% (inactive).
With `OC1(c2cccc(C(F)(F)F)c2)CCN(c2ncnc3c2[nH]c2ccc(F)cc23)CC1` the inhibition was 7.8% (inactive).
In the case of `CCOc1ccc(C2/C(=C(\O)c3c(C)[nH]c(C(=O)OC)c3C)C(=O)C(=O)N2CCN(C)C)cc1` (stereo not given), the inhibition is reported as -9% (inactive).
With `O=C(CN1CCCCCC1=O)OCc1ncc(-c2ccccc2)o1` the inhibition was -11.1% (inactive).
For `CCOC(=O)c1cnc(-n2nc(C)cc2C)nc1N1CCOCC1`, the inhibition was 8.4% (inactive).
For `O=C(NC(NC1CCS(=O)(=O)C1)C(=O)c1cccs1)c1ccccc1` (stereo not given), the inhibition was 6.8% (inactive).
For `COCCCNC(=S)NC1CC2CCCC(C1)N2Cc1ccco1` (stereo not given), the inhibition was 4.7% (inactive).
With `C=CCn1c(SCC(=O)Nc2ccc(C(=O)OCC)cc2)nnc1-c1sc(N)nc1C` the inhibition was -0.9% (inactive).
In the case of `Cn1cc([N+](=O)[O-])c(C(=O)Nc2ccc3c(c2)OCCO3)n1`, the inhibition is reported as -7.4% (inactive).
With `Cc1ccc(-c2nn(C(C)(C)C)c3ncnc(N)c23)cc1` the inhibition was -7.8% (inactive).
In the case of `Cn1nc(C(=O)OCC(=O)N2CCc3ccccc32)c2ccccc2c1=O`, the inhibition is reported as 4.3% (inactive).
For `CC(C)(C)NS(=O)(=O)c1ccc(Oc2ncc(C(F)(F)F)cc2Cl)cc1`, the inhibition was 12.1% (inactive).
With `Cn1cccc1C(=O)OCC(=O)Nc1cc(C(C)(C)C)nn1-c1ccccc1` the inhibition was -17.7% (inactive).
In the case of `CCCCN(C(=O)NC(=O)Nc1cccc(C)c1C)S(C)(=O)=O`, the inhibition is reported as 1.6% (inactive).
In the case of `O=C(O)CCC(=O)NC1CCCCCCC1`, the inhibition is reported as 3.8% (inactive).
With `Cc1ccc(C(=O)NCCCn2ccnc2)cn1` the inhibition was 1.3% (inactive).
With `C/C=C/COC(=O)c1[nH]c2c(c1C)C(=O)CC(c1ccco1)C2` (stereo not given) the inhibition was -1.7% (inactive).
In the case of `CCN(CC)S(=O)(=O)c1ccc(NC(=O)C(C)N(c2ccc(OC)cc2)S(C)(=O)=O)cc1` (stereo not given), the inhibition is reported as -14.1% (inactive).
For `CCOc1cc(C(=O)OCC(=O)c2c(C)[nH]c3ccccc23)ccc1OCC(=O)N1CCOCC1`, the inhibition was -10.4% (inactive).
In the case of `CC(N)Cc1ccccc1Sc1ccc(O)cc1` (stereo not given), the inhibition is reported as 5.2% (inactive).
For `CSCCC(NC(=O)OCc1ccccc1)C(=O)O` (stereo not given), the inhibition was -2% (inactive).
In the case of `O=C(CF)NC(Nc1cccc2cccnc12)C(Cl)(Cl)Cl` (stereo not given), the inhibition is reported as -8.8% (inactive).
In the case of `Cc1ccc(-c2cc(C(=O)NCc3ccccn3)no2)cc1`, the inhibition is reported as 3.6% (inactive).
In the case of `C/C(=N\Nc1nc2c(s1)CCCC2)c1ccccc1`, the inhibition is reported as -2.4% (inactive).
For `COc1ccccc1N(C)S(=O)(=O)c1ccc(C(=O)NCC(C)C)cc1`, the inhibition was 2.3% (inactive).
In the case of `CC(C)(C)SCCNC(=O)CN(c1ccc(F)cc1)S(C)(=O)=O`, the inhibition is reported as -2.5% (inactive).
For `Cc1ccc(-c2nc(NC(=O)c3nn(C)cc3[N+](=O)[O-])sc2C)cc1`, the inhibition was 5.1% (inactive).
For `NC(=S)N/N=C/c1ccc(-c2cc(Cl)ccc2Cl)o1`, the inhibition was -7.4% (inactive).
In the case of `Cc1ccn2c(NC(=O)c3ccco3)c(-c3ccccc3)nc2c1`, the inhibition is reported as 12.5% (inactive).
In the case of `O=S(=O)(c1ccc(Cl)c(Cl)c1)c1snnc1-c1ccccc1`, the inhibition is reported as 5.7% (inactive).
With `COc1ccc(CCNc2oc(COc3ccccc3F)nc2C#N)cc1` the inhibition was 0% (inactive).
With `COC(=O)c1ccc(-n2nnnc2SCC(=O)N2CCCCC2)cc1` the inhibition was 3.1% (inactive).
With `O=C1Nc2ccc(S(=O)(=O)N3CCOCC3)c3cccc1c23` the inhibition was 0.5% (inactive).
With `CCC(C)Oc1cccc(OCCCCN2C(=O)NC(C)(C)C2=O)c1` (stereo not given) the inhibition was -13.9% (inactive).
With `C=CCCCOc1ccc(C(=O)O)cc1` the inhibition was -2.1% (inactive).
For `C/C(=N\O)c1ccc2c3ccccc3n(C)c2c1`, the inhibition was -20.9% (inactive).
For `Cn1c(NC(=O)C2c3ccccc3Oc3ccccc32)cc(=O)n(C)c1=O`, the inhibition was -0.3% (inactive).
In the case of `Cc1ccc(S(=O)(=O)c2cc(C#N)c(=O)[nH]c2N)cc1`, the inhibition is reported as 9.1% (inactive).
For `O=C(Nc1ncc2c(n1)CC(c1ccco1)CC2=O)c1ccc(Cl)cc1` (stereo not given), the inhibition was -4.9% (inactive).
For `CCCCCCCCCCn1c2c(c(=N)c3c1CCC3)CCC2`, the inhibition was -24.6% (inactive).
In the case of `CCCc1nc(SCC(=O)N2CCc3ccccc32)c2c(C)c(C)sc2n1`, the inhibition is reported as 2.2% (inactive).
With `Nc1ccc2c3c(cccc13)CC2` the inhibition was -5.4% (inactive).
For `CC(=O)Nc1nc2cc3c(cc2s1)OCO3`, the inhibition was 1.3% (inactive).
With `C=CCn1c(N2CCCC2)nc2c1c(=O)[nH]c(=O)n2C` the inhibition was -4.9% (inactive).
In the case of `Cc1cnc(NC(=O)C2CCCC2)s1`, the inhibition is reported as -5.2% (inactive).
For `Cc1cc(NC(=O)NC(=O)c2cccc(OC(F)(F)C(F)F)c2)n[nH]1`, the inhibition was -2.9% (inactive).
For `CC1Cc2cc(-c3csc(NC(=O)Cc4cccs4)n3)ccc2N1S(C)(=O)=O` (stereo not given), the inhibition was -0.1% (inactive).
For `CC1(C)Cc2c(oc3ncn4ncnc4c23)CO1`, the inhibition was 2.7% (inactive).
In the case of `COC(=O)CCSc1nccn1Cc1ccccc1`, the inhibition is reported as -9.8% (inactive).
For `COc1cc2c(cc1OC)CN(C(=O)C(C)(C)C)CC2`, the inhibition was -1.3% (inactive).
With `N#Cc1c(N)nc(SCC(=O)NCc2ccc3c(c2)OCO3)c(C#N)c1-c1cccs1` the inhibition was 0.2% (inactive).
In the case of `CCCCCCCC(=O)N/N=C(\C)c1cccnc1`, the inhibition is reported as 2.2% (inactive).
For `COc1ccc(N2C(=O)CC(NC3CCCCNC3=O)C2=O)cc1` (stereo not given), the inhibition was -8.6% (inactive).
With `CCc1ccc2oc(-c3cc(N)ccc3O)nc2c1` the inhibition was -11.6% (inactive).
For `Cc1nnc(SCc2cn3ccsc3n2)n(N)c1=O`, the inhibition was -0.8% (inactive).
With `COc1ccc(C(=O)c2ccc(N(C)C)cc2)c2ccccc12` the inhibition was -3.3% (inactive).
With `CC(C)(C)NC(=O)C1N(c2cccnc2)C(=O)C2C(C(=O)Nc3ccccc3F)C3(C)C=CC21O3` (stereo not given) the inhibition was -29.5% (inactive).
For `COc1ccc(OC)c(NS(=O)(=O)c2ccc(N3CCCC3=O)cc2)c1`, the inhibition was -3.6% (inactive).
In the case of `CS(=O)(=O)N(CC(=O)NCc1ccccc1Cl)Cc1ccccc1`, the inhibition is reported as 0% (inactive).
In the case of `C=CCN1C(=O)/C(=C2/Sc3ccccc3N2CCCS(=O)(=O)O)SC1=S`, the inhibition is reported as 0.3% (inactive).
With `CCn1c(SCC(=O)N2CCN(c3cccc(Cl)c3)CC2)nc2ccccc2c1=O` the inhibition was -3.6% (inactive).
For `CC(CCc1ccccc1)NC(=O)c1ccc(Br)o1` (stereo not given), the inhibition was -0.1% (inactive).
With `C=CCOC(=O)C1=C(C)OC(N)=C(C#N)C12C(=O)N(CN1CCOCC1)c1ccccc12` (stereo not given) the inhibition was -12.8% (inactive).
For `C#CC(=O)N(c1cccc(OC)c1)C(C(=O)NC1CCCC1)c1cccs1` (stereo not given), the inhibition was -5.8% (inactive).
For `C=CC(=O)Nc1ccc(Br)cc1`, the inhibition was -1.2% (inactive).
With `CC(C)CCN1CC(C(=O)NCCC2=CCCCC2)CC1=O` (stereo not given) the inhibition was -12.9% (inactive).
With `O=c1c2c3c(sc2nc2n1CCC2)CCC3` the inhibition was -14.6% (inactive).
With `Cn1c(SCC(=O)NC2CCCCC2)nnc1-c1cccc(N)c1` the inhibition was -8.2% (inactive).
For `O=C(O)c1ccccc1Nc1ccccc1C(=O)O`, the inhibition was 0.6% (inactive).
With `Cc1cc(C)cc(OCC(=O)Nc2nonc2NC(=O)COc2cc(C)cc(C)c2)c1` the inhibition was -12% (inactive).
In the case of `CCNc1nc(NCC)n2c(SCc3ccc(F)cc3)nnc2n1`, the inhibition is reported as 4.8% (inactive).
For `Cc1ccc(O)c(NC(=O)C2CC(c3c(F)cccc3Cl)=NO2)c1` (stereo not given), the inhibition was -4.4% (inactive).
In the case of `COc1cc(NC(=O)CN2C(=O)NC(C)(CC(C)C)C2=O)cc(OC)c1` (stereo not given), the inhibition is reported as 1.2% (inactive).

Same assay, conditions: cell-based imaging, cytoskeleton assembly phenotype, high content; cell count; at 10 µM; stronger effect = lower value
`Cc1cccc2cc(C#N)c(SCC(=O)N3CC(=O)Nc4ccccc43)nc12` gave a cell count of 67.8%.
